These are literature values, as cited in patent US6395309B1, “Use of an extract of Alchemilla vulgaris to inhibit angiogenesis” (Weber & Weber GmbH & Co. KG, priority 1998, dated 2002).

Each structure is given as a SMILES string.

For data set [1] the following is noted: clinically tested.

As to `O=c1c(O)c(-c2ccc(O)cc2)oc2cc(O)cc(O)c12` [Campherol], the “histamine release from mast cells” value with mast cells was “inhibits histamine release”.

For the molecule `Cc1ccc(C(=O)Nc2ccc(S(=O)(=O)O)c3cc(S(=O)(=O)O)cc(S(=O)(=O)O)c23)cc1NC(=O)c1cccc(NC(=O)Nc2cccc(C(=O)Nc3cc(C(=O)Nc4ccc(S(=O)(=O)O)c5cc(S(=O)(=O)O)cc(S(=O)(=O)O)c45)ccc3C)c2)c1` [Sumarin], in data set [1], the “toxic effects on clinical testing” value is “therapeutic use is questionable because of toxic effects”.
